The text below walks through data of patent US4647552A, “Process for obtaining ready for fertilization sexual products from sexually mature fish” (Kozponti Valto-es Hitelbank Rt. Innovacios Alap, priority 1983, dated 1987).

Common to all, as to type: in vivo
Assay [1] relates to common carp (Cyprinus carpio L.). The assay can be described thus: Induced artificial propagation of common carp. Particulars: single dose of 70 μg if ripe for ovulation, or last of the 5 μg doses. Here is the method:
In any season of the year and at any temperature mature breeders are selected from the stock and transported to the place of propagation. Sexes are segregated and the stage of ripening of sexual products is determined according to Example 1. If fish are ripe for ovulation, a single dose of 70 μg of decapeptide of formula (III) is administered, including males. Fish not yet ripe for making ovulate should be kept at the temperature of natural spawning and the above-mentioned compound should be administered in doses of 5 μg each, at least 2 but at most 15 times as long as the nucleus of the egg cell moves from the centre to the periphery. The number of treatments depends on the actual stage of maturity of sexual products in comparison to the stage "ripe for ovulation". The process of ripening lasts at least 100 but most 750 day-grades in the temperature interval of 20°-24° C. Ovulation takes place 240-260 hour-grades after the administration of the last dose. Then sexual products are stripped in 40-60 minutes. cl EXAMPLE 3

For assay [2], the system named is silver carp (Hypophthalmichthys molitrix Val.). The assay can be described thus: Induced artificial propagation of silver carp. Particulars: single dose of 100 μg if ripe for ovulation, or last of the 10 μg doses. Here is the method: Sexually mature fish are selected from the stock and transported to the place of propagation. Sexes are segregated. Stage of ripening of sexual products is determined according to Example 1 and fish ripe for ovulation--including males--are treated with a single dose of 100 μg of decapeptide of formula (III). Fish not yet ripe for ovulation should be kept at the temperature of natural spawning and the above-mentioned compound should be administered in doses of 10 μg each, at least 2 but at most 10 times as long as the nucleus of egg cell moves from the centre to the periphery. The number of treatments depends on the actual stage of maturity of sexual products in comparison to the stage "ripe for ovulation". This process of ripening lasts at least 150, in extreme cases to 850, day-grades in the water temperature interval of 20°-26° C. Ovulation takes place 240-260 hour-grades after the administration of the last dose. Thereafter sexual products are stripped.

Assay [3] relates to sterlet (Acipenser ruthenus L.). The assay can be described thus: Induced artificial propagation of sterlet. Particulars: single dose of 70 μg if ripe for ovulation, or last of the 10 μg doses, injected. The protocol:
From the population of a given habitat mature fish are selected and then transported to the place of propagation. Sexes are segregated and the stage of ripening of eggs from females is determined. Fish are considered to be ripe for ovulation if the nucleus is situated on the periphery of the egg cell. Sperms of males are not examined as in the population of a given habitat the sexual products of males and females are practically in the same stage of ripening. If fish are ripe for ovulation, decapeptide of formula (II) in a single dose of 70 μg each is injected into each fish, including males. If fish are not ripe for ovulation, they should be kept at the temperature of natural spawning and the above compound should be administered in doses of 10 μg each, at least 2 but at most 12 times as long as the nucleus moves from the centre to the periphery. The number of treatments depends on the actual stage of maturity of sexual products in comparison to the stage "ripe for ovulation". This process of ripening lasts at least 100 but at most 630 day-grades in the temperature interval of 12°-18° C. (Day-grade means number of days multiplied by the mean temperature of water used in the ripening period.) Ovulation takes place 24-32 hours after the administration of the last dose. Thereafter sexual products are obtained in 40-60 minutes.

For assay [4], the system named is perch [Perca fluviatilis L.]. The assay can be described thus: Induced artificial propagation of perch. Particulars: single dose of 20 μg if ripe for ovulation, or last of the 2 μg doses. Here is the method:
Mature fish are selected from a population and transported to the place of propagation. Maturity of sexual products is determined according to Example 1 but sexes are not segregated. Fish ripe for ovulation--includingmales--are treated with a single dose of 20 μg of decapeptide of formula (II). Fish not yet ripe for ovulation should be kept at the temperature of natural spawning and the above-mentioned compound should be administered in doses of 2 μg each at least 2 but at most 10 times as long as the nucleus of egg cell moves from the centre to the periphery. The number of treatments depends on the actual stage of maturity of sexual products in comparison to the stage "ripe for ovulation". The process of ripening lasts at least 100 day-grades, in extreme cases to 400 day-grades, in the water temperature-interval of 12°-16° C. Spawning takes place 24-36 hours after the administration of the last dose. Perch can be spawned easily in tanks; in such a case stripping of sexual products is not necessary.

Assay [5] has as its system horse mackerel (Trachurus trachurus L.). The assay can be described thus: Induced artificial propagation of horse mackerel. To be noted: single dose of 10 μg injected, water temperature 18°-24° C. Here is the method: From among horse mackerels caught alive from the Adriatic in November specimens having a length of at least 240 mm are transported to the place of propagation. (Fish of this size are already mature sexually.) The compound of formula (II) is injected into each fish in a single dose of 10 μg. Ovulation takes place in 24 hours at the water temperature of 18°-24° C. Sexual products are obtained in 2 hours. In case of horse mackerel the determination of stage of ripening and sex is unnecessary as ripe fish are at disposal in a practically unlimited quantity.

Where a SMILES comes first, the peptide text is derived from it. [ ]: non-standard residue; d: D form. pGlu = O=C1CC[C@@H](C(=O)O)N1

Regarding `CC(C)C[C@H](NC(=O)[C@H](Cc1c[nH]c2ccccc12)NC(=O)[C@@H](Cc1ccccc1)NC(=O)[C@H](Cc1ccc(O)cc1)NC(=O)[C@H](CO)NC(=O)[C@H](Cc1c[nH]c2ccccc12)NC(=O)[C@H](Cc1c[nH]cn1)NC(=O)[C@@H]1CCC(=O)N1)C(=O)N1CCC[C@H]1C(=O)NCC(N)=O` [formula (III), Glp-His-Trp-Ser-Tyr-D-Phe-Trp-Leu-Pro-Gly-NH2] ([pGlu]HWSY[dF]WLPG-NH2), the “Ovulation takes place after the administration of the last dose” value in assay [1] and in assay [2] was 240-260 hour-grades each time.

With `CC(C)C[C@H](NC(=O)[C@@H](Cc1ccccc1)NC(=O)[C@H](Cc1ccc(O)cc1)NC(=O)[C@H](CO)NC(=O)[C@H](Cc1c[nH]c2ccccc12)NC(=O)[C@H](Cc1c[nH]cn1)NC(=O)[C@@H]1CCC(=O)N1)C(=O)N[C@@H](CCC(N)=O)C(=O)N1CCC[C@H]1C(=O)NCC(N)=O` [formula (II), Glp-His-Trp-Ser-Tyr-D-Phe-Leu-Gln-Pro-Gly-NH2] ([pGlu]HWSY[dF]LQPG-NH2), the “Ovulation takes place after the administration of the last dose” value in assay [3] fell in the range of 24 to 32 h. The “Spawning takes place after the administration of the last dose” value in assay [4] is 24 to 36 h. Moreover, the “Ovulation takes place in” value in assay [5] was determined as 24 h.
